Values of other authors, collected in patent US9808460B2, “Controlled release auris sensory cell modulator compositions and methods for the treatment of otic disorders” (Otonomy, Inc., priority 2008, dated 2017).

System: ototoxic effects of cisplatin
Conditions: in certain instances

In the case of `NCCCNCCSP(=O)(O)O` [Amifostine], the “doses needed to protect against or ameliorate the ototoxic effects of cisplatin” value is given as ≥ 40 mg/kg.
